Measured values reported in PubChem BioAssay (NCI).
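Cells were grown in 96-well plates and exposed to each compound for 48 hours at five concentrations; endpoints were interpolated linearly between bracketing concentrations, or set to the highest concentration if not reached. At the GI50, growth is halved. TGI: concentration producing complete growth inhibition.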

What was measured:
Test in all cases: inhibition of tumour cell growth, NCI panel, 48 h
OVCAR-3 ovarian = test system: OVCAR-3 ovarian
SF-295 CNS = test system: SF-295 CNS
UACC-257 melanoma = test system: UACC-257 melanoma
U251 CNS = test system: U251 CNS
IGROV1 ovarian = test system: IGROV1 ovarian
HL-60(TB) leukemia = test system: HL-60(TB) leukemia
HS 578T breast = test system: HS 578T breast
MDA-MB-231 breast = test system: MDA-MB-231 breast
CAKI-1 renal = test system: CAKI-1 renal
HCT-116 colon = test system: HCT-116 colon
NCI-H460 lung = test system: NCI-H460 lung
DU-145 prostate = test system: DU-145 prostate
MDA-N = test system: MDA-N
EKVX NSCLC = test system: EKVX NSCLC
A549 NSCLC = test system: A549 NSCLC
MOLT-4 leukemia = test system: MOLT-4 leukemia
MALME-3M melanoma = test system: MALME-3M melanoma
OVCAR-4 ovarian = test system: OVCAR-4 ovarian
TK-10 renal = test system: TK-10 renal
SNB-19 CNS = test system: SNB-19 CNS
UO-31 renal = test system: UO-31 renal
SN12C renal = test system: SN12C renal
SF-268 CNS = test system: SF-268 CNS
KM12 colon = test system: KM12 colon
UACC-62 melanoma = test system: UACC-62 melanoma
NCI-H522 lung = test system: NCI-H522 lung
RXF 393 renal = test system: RXF 393 renal
PC-3 prostate = test system: PC-3 prostate
MCF7 breast = test system: MCF7 breast
HCT-15 colon = test system: HCT-15 colon
SK-OV-3 ovarian = test system: SK-OV-3 ovarian
MDA-MB-435 = test system: MDA-MB-435
M14 melanoma = test system: M14 melanoma
SK-MEL-2 melanoma = test system: SK-MEL-2 melanoma
SW-620 colon = test system: SW-620 colon
SR leukemia = test system: SR leukemia
SNB-75 CNS = test system: SNB-75 CNS
786-0 renal = test system: 786-0 renal
NCI-H226 lung = test system: NCI-H226 lung
NCI-H23 lung = test system: NCI-H23 lung
RPMI-8226 leukemia = test system: RPMI-8226 leukemia
SK-MEL-28 melanoma = test system: SK-MEL-28 melanoma
K-562 leukemia = test system: K-562 leukemia
SK-MEL-5 melanoma = test system: SK-MEL-5 melanoma
CCRF-CEM leukemia = test system: CCRF-CEM leukemia
HT29 colon = test system: HT29 colon
COLO 205 colon = test system: COLO 205 colon
OVCAR-8 ovarian = test system: OVCAR-8 ovarian
ACHN renal = test system: ACHN renal
OVCAR-5 ovarian = test system: OVCAR-5 ovarian
HOP-62 NSCLC = test system: HOP-62 NSCLC
LOX IMVI melanoma = test system: LOX IMVI melanoma
NCI/ADR-RES ovarian = test system: NCI/ADR-RES ovarian
SF-539 CNS = test system: SF-539 CNS
A498 renal = test system: A498 renal
BT-549 breast = test system: BT-549 breast
HCC-2998 colon = test system: HCC-2998 colon
HOP-92 NSCLC = test system: HOP-92 NSCLC

For `COc1cccc(Nc2nc(NNC(=O)Cc3ccccc3)nc(NNC(=O)c3ccncc3)n2)c1`, the TGI (OVCAR-3 ovarian) was > 100 µM, the TGI (SF-295 CNS) was > 100 µM and the GI50 (UACC-257 melanoma) was > 100 µM. The TGI (UACC-257 melanoma) was > 100 µM, the GI50 (U251 CNS) was > 100 µM and the TGI (U251 CNS) was > 100 µM. The GI50 (IGROV1 ovarian) was > 100 µM, the TGI (IGROV1 ovarian) was > 100 µM and the TGI (HL-60(TB) leukemia) was > 100 µM. The GI50 (HS 578T breast) was > 100 µM, the TGI (HS 578T breast) was > 100 µM and the GI50 (MDA-MB-231 breast) was > 100 µM. For the same compound, the TGI (MDA-MB-231 breast) was > 100 µM, the GI50 (CAKI-1 renal) was > 100 µM and the TGI (CAKI-1 renal) was > 100 µM. The TGI (HCT-116 colon) was > 100 µM, the GI50 (NCI-H460 lung) was > 100 µM and the TGI (NCI-H460 lung) was > 100 µM. For the same compound, the GI50 (DU-145 prostate) was > 100 µM, the TGI (DU-145 prostate) was > 100 µM and the GI50 (MDA-N) was > 100 µM. For the same compound, the TGI (MDA-N) was > 100 µM, the GI50 (EKVX NSCLC) was > 100 µM and the TGI (EKVX NSCLC) was > 100 µM. The GI50 (A549 NSCLC) was > 100 µM, the TGI (A549 NSCLC) was > 100 µM and the TGI (MOLT-4 leukemia) was > 100 µM. The GI50 (MALME-3M melanoma) was > 100 µM, the TGI (MALME-3M melanoma) was > 100 µM and the GI50 (OVCAR-4 ovarian) was > 100 µM. The TGI (OVCAR-4 ovarian) was > 100 µM, the GI50 (TK-10 renal) was > 100 µM and the TGI (TK-10 renal) was > 100 µM. For the same compound, the TGI (SNB-19 CNS) was > 100 µM, the GI50 (UO-31 renal) was 32.3 µM and the TGI (UO-31 renal) was > 100 µM. The GI50 (SN12C renal) was > 100 µM, the TGI (SN12C renal) was > 100 µM and the GI50 (SF-268 CNS) was > 100 µM. The TGI (SF-268 CNS) was > 100 µM, the TGI (KM12 colon) was > 100 µM and the GI50 (UACC-62 melanoma) was 36 µM. The TGI (UACC-62 melanoma) was > 100 µM, the TGI (NCI-H522 lung) was > 100 µM and the TGI (RXF 393 renal) was > 100 µM. The TGI (PC-3 prostate) was > 100 µM, the GI50 (MCF7 breast) was > 100 µM and the TGI (MCF7 breast) was > 100 µM. For the same compound, the GI50 (HCT-15 colon) was > 100 µM, the TGI (HCT-15 colon) was > 100 µM and the GI50 (SK-OV-3 ovarian) was > 100 µM. For the same compound, the TGI (SK-OV-3 ovarian) was > 100 µM, the TGI (MDA-MB-435) was > 100 µM and the TGI (M14 melanoma) was > 100 µM. The TGI (SK-MEL-2 melanoma) was > 100 µM, the TGI (SW-620 colon) was > 100 µM and the TGI (SR leukemia) was > 100 µM. The TGI (SNB-75 CNS) was > 100 µM, the GI50 (786-0 renal) was > 100 µM and the TGI (786-0 renal) was > 100 µM. For the same compound, the TGI (NCI-H226 lung) was > 100 µM, the GI50 (NCI-H23 lung) was > 100 µM and the TGI (NCI-H23 lung) was > 100 µM. The GI50 (RPMI-8226 leukemia) was > 100 µM, the TGI (RPMI-8226 leukemia) was > 100 µM and the TGI (SK-MEL-28 melanoma) was > 100 µM. For the same compound, the GI50 (K-562 leukemia) was > 100 µM, the TGI (K-562 leukemia) was > 100 µM and the GI50 (SK-MEL-5 melanoma) was > 100 µM. The TGI (SK-MEL-5 melanoma) was > 100 µM, the GI50 (CCRF-CEM leukemia) was > 100 µM and the TGI (CCRF-CEM leukemia) was > 100 µM. The TGI (HT29 colon) was > 100 µM, the GI50 (COLO 205 colon) was > 100 µM and the TGI (COLO 205 colon) was > 100 µM. For the same compound, the GI50 (OVCAR-8 ovarian) was > 100 µM, the TGI (OVCAR-8 ovarian) was > 100 µM and the TGI (ACHN renal) was > 100 µM. The TGI (OVCAR-5 ovarian) was > 100 µM, the GI50 (HOP-62 NSCLC) was > 100 µM and the TGI (HOP-62 NSCLC) was > 100 µM. The TGI (LOX IMVI melanoma) was > 100 µM, the GI50 (NCI/ADR-RES ovarian) was > 100 µM and the TGI (NCI/ADR-RES ovarian) was > 100 µM. For the same compound, the GI50 (SF-539 CNS) was > 100 µM, the TGI (SF-539 CNS) was > 100 µM and the TGI (A498 renal) was > 100 µM.
With `O=C1C(NS(=O)(=O)c2ccccc2)=C(n2cnc3ccccc32)C(=O)c2ccccc21` the TGI (OVCAR-3 ovarian) was > 100 µM, the TGI (SF-295 CNS) was > 100 µM and the TGI (UACC-257 melanoma) was > 100 µM. For the same compound, the TGI (U251 CNS) was > 100 µM, the TGI (IGROV1 ovarian) was > 100 µM and the TGI (HL-60(TB) leukemia) was > 100 µM. For the same compound, the TGI (HS 578T breast) was > 100 µM, the TGI (MDA-MB-231 breast) was > 100 µM and the TGI (CAKI-1 renal) was > 100 µM. For the same compound, the TGI (HCT-116 colon) was > 100 µM, the TGI (NCI-H460 lung) was > 100 µM and the TGI (DU-145 prostate) was > 100 µM. For the same compound, the TGI (MDA-N) was > 100 µM, the TGI (EKVX NSCLC) was > 100 µM and the TGI (A549 NSCLC) was > 100 µM. The TGI (MOLT-4 leukemia) was > 100 µM, the TGI (MALME-3M melanoma) was > 100 µM and the TGI (OVCAR-4 ovarian) was > 100 µM. The TGI (TK-10 renal) was > 100 µM, the TGI (SNB-19 CNS) was > 100 µM and the TGI (UO-31 renal) was > 100 µM. The TGI (SN12C renal) was > 100 µM, the TGI (SF-268 CNS) was > 100 µM and the TGI (KM12 colon) was > 100 µM. For the same compound, the TGI (UACC-62 melanoma) was > 100 µM, the TGI (NCI-H522 lung) was 53.7 µM and the TGI (RXF 393 renal) was 98.2 µM. The TGI (PC-3 prostate) was > 100 µM, the TGI (MCF7 breast) was > 100 µM and the TGI (BT-549 breast) was > 100 µM. The TGI (HCT-15 colon) was > 100 µM, the TGI (SK-OV-3 ovarian) was > 100 µM and the TGI (MDA-MB-435) was > 100 µM. The TGI (M14 melanoma) was > 100 µM, the TGI (SK-MEL-2 melanoma) was > 100 µM and the TGI (SW-620 colon) was > 100 µM. The TGI (SR leukemia) was > 100 µM, the TGI (SNB-75 CNS) was 85 µM and the TGI (HCC-2998 colon) was > 100 µM. For the same compound, the TGI (786-0 renal) was > 100 µM, the TGI (NCI-H226 lung) was > 100 µM and the TGI (NCI-H23 lung) was > 100 µM. For the same compound, the TGI (RPMI-8226 leukemia) was > 100 µM, the TGI (SK-MEL-28 melanoma) was > 100 µM and the TGI (K-562 leukemia) was > 100 µM. The TGI (SK-MEL-5 melanoma) was > 100 µM, the TGI (CCRF-CEM leukemia) was > 100 µM and the TGI (HOP-92 NSCLC) was > 100 µM. The TGI (HT29 colon) was > 100 µM, the TGI (COLO 205 colon) was > 100 µM and the TGI (OVCAR-8 ovarian) was > 100 µM. For the same compound, the TGI (ACHN renal) was > 100 µM, the TGI (OVCAR-5 ovarian) was > 100 µM and the TGI (HOP-62 NSCLC) was > 100 µM. The TGI (LOX IMVI melanoma) was > 100 µM, the TGI (NCI/ADR-RES ovarian) was > 100 µM and the TGI (SF-539 CNS) was > 100 µM.
